Data on 20 compounds can be found in patent publication US20230091608A1, “COMPOUND AND DIAGNOSTIC SYSTEM COMPRISING SAID COMPOUND FOR THE GUSTATORY DETECTION OF INFLAMMATIONS IN THE ORAL CAVITY” (Julius-Maximilians-Universitaet Wuerzburg, priority 2019, published 2023).

The subject of the assay is aminopeptidase (AP). Briefly: Cleavage of [Ia-X] constructs by aminopeptidase (AP), LC/MS for complete degradation. In kind it is biochemical. As for the experimental part:
To trigger maximum gustatory perception, the last amino acid from the modified denatonium must also be removed by the aminopeptidase.
The resulting constructs were incubated with AP for 24 h and analyzed by LC/MS for complete degradation (Table 2).
As to `NC(=O)C[C@H](N)C(=O)O` [Asparagine], the “Detectable after 24 h incubation with AP” value was “+”. To `N[C@@H](CC(=O)O)C(=O)O` [Aspartic acid] belongs “+”; to `N[C@@H](CS)C(=O)O` [Cysteine], “−”. For `N[C@@H](CCC(=O)O)C(=O)O` [Glutamic acid] the value was “−”; for `NC(=O)CC[C@H](N)C(=O)O` [Glutamine], “+”. To `NCC(=O)O` [Glycine] belongs “+”; to `N[C@@H](Cc1c[nH]cn1)C(=O)O` [Histidine], “+”; to `CC[C@H](C)[C@H](N)C(=O)O` [Isoleucine], “+”.

For `CC(C)C[C@H](N)C(=O)O` [Leucine], the “Detectable after 24 h incubation with AP” value is given as “−”.

Consider `CSCC[C@H](N)C(=O)O` [Methionine], for which the “Detectable after 24 h incubation with AP” value was “−”. Take `N[C@@H](Cc1ccccc1)C(=O)O` [Phenylalanine]: the “Detectable after 24 h incubation with AP” value was “−”. To `N[C@@H](CO)C(=O)O` [Serine] belongs “−”.

For `C[C@@H](O)[C@H](N)C(=O)O` [Threonine], the “Detectable after 24 h incubation with AP” value was “+”. For `N[C@@H](Cc1c[nH]c2ccccc12)C(=O)O` [Tryptophan] the value was “+”.

For `CC(C)[C@H](N)C(=O)O` [Valine], the “Detectable after 24 h incubation with AP” value is recorded as “+”. To Alanine belongs “−”. For Arginine the value was “−”; for Lysine, “−”; for Proline, “+”. In the case of Tyrosine, the “Detectable after 24 h incubation with AP” value is “−”.
